From publication PMC8763382, “2-Sulfonylpyrimidines as Privileged Warheads for the Development of S. aureus Sortase A Inhibitors” (Frontiers in Molecular Biosciences, 2022)
Where “and” joins values, the source holds several entries; their conditions need not be identical. Identical values can stand only once.

Legend:
[1] = molecular target: T1, S. aureus SrtA (Staphylococcus aureus, UniProt Q2FV99); experiment: fluorometric enzyme assay of SrtA transpeptidation (Abz-LPETG-Dap(Dnp)-OH substrate); assay type: biochemical; conditions: for k inact: maximum inactivation rate; for k inact / KI (inactivation) / k 2nd: Tris pH 7.50, n. i. = <20% inhibition at 100 µM; for KI (inactivation): read-out: KI, dissociation constant of the reversible enzyme-inhibitor complex; for k 2nd: second-order rate of inhibition; for SrtA inhibition (in words): fluorometric enzyme assay, inhibitor concentration 100 µM
T1 construct: His tag (inferred from IMAC on a HisTrap column); made in house; host or cells: E. coli BL21 Gold (DE3)
Procedure: To evaluate the inhibition potency of the parent sulfonylpyrimidine 4, this compound was tested by means of a fluorometric enzyme assay with recombinantly expressed S. aureus SrtA ([Schmohl et al., 2017b]) and Abz-LPETG-Dap (Dnp)-OH as substrate. […] To verify the irreversible mode of inhibition, we determined the maximum inactivation rate k inact, the dissociation constant of the reversible enzyme-inhibitor complex KI, and the second-order rate of inhibition k 2nd. For compound 4, a k inact = 0.00065 s^−1 was found, which is very low compared to other covalent SrtA inhibitors ([Chan et al., 2017]; [Barthels et al., 2020]; [Jaudzems et al., 2020]).
Inhibition assays of S. aureus SrtA transpeptidation reactions were performed as described previously ([Barthels et al., 2020]). Briefly, the recombinantly expressed SrtA (final concentration: 1 µM) was incubated in assay buffer (50 mM Tris, 150 mM NaCl, 5 mM CaCl2, pH 7.50) with 25 µM of the FRET-pair substrate Abz-LPETG-Dap (Dnp)-OH (Genscript, Piscataway, New Jersey) and 0.5 mM tetraglycine (Sigma Aldrich, St. Louis, Missouri). Inhibitors were added from DMSO stocks. Reactions were initiated by addition of SrtA and monitored for 30 min at 30°C in an Infinite M200 Pro plate reader with λex 320 nm/λem 430 nm (Tecan, Männedorf, Switzerland). Three technical replicates were carried out for each inhibitor in black flat-bottom 96-well plates (Greiner bio-one, Kremsmünster, Austria). The enzyme kinetics of irreversible SrtA inactivation were analyzed as described previously ([Barthels et al., 2020]).

[2] = molecular target: T2, human cathepsin B (hCatB) (Homo sapiens, UniProt P07858); experiment: protease selectivity panel, fluorometric assay cathepsin B; assay type: biochemical; conditions: 100 µM inhibitor; read-out: CatB inhibition relative to the DMSO control
T2 construct: purchased Calbiochem, Merck Millipore
Procedure: (§1) To investigate how these sulfonylpyrimidines affect the activity of other cysteine and serine proteases, a selectivity panel was constructed from a matrix of 6 diverse sulfonylpyrimidines and 6 different proteases. The compounds were assayed at a final compound concentration of 100 µM for the cysteine proteases human cathepsin B (hCatB), cathepsin L (hCatL), and T. brucei rhodesain (Rd). Furthermore, the serine proteases NS2B-NS3 from Zika virus (ZIKV), the homologous protease from Dengue virus (DENV), and the human protease urokinase plasminogen activator (uPA) were tested for their susceptibility.
(§2) Fluorometric assays of the ZIKV/DENV NS2B/NS3 protease were performed as described previously ([Maus et al., 2021]). The assay was carried out in triplicates at 25°C in assay buffer (50 mM Tris, pH 9.0, 20% glycerol (v/v), and 1 mM CHAPS). 100 µM Boc-Gly-Arg-Arg-AMC (Bachem, Bubendorf, Switzerland) was used as a substrate. Fluorometric assays for cathepsin B, cathepsin L, and rhodesain (Calbiochem, Merck Millipore, Burlington, Massachusetts) were performed as described previously ([Klein et al., 2020a]). Cbz-Phe-Arg-AMC (Bachem, Bubendorf, Switzerland) was used as substrate (100 μM for cathepsin B, 6.5 μM for cathepsin L, and 10 µM for rhodesain). Fluorometric assays for urokinase plasminogen activator were performed as described previously ([Angelini et al., 2012]). 240 µM Cbz-Gly-Arg-Arg-AMC (Bachem, Bubendorf, Switzerland) was used as a substrate.

[3] = molecular target: T3, T. brucei rhodesain (Rd) (Trypanosoma brucei rhodesiense, UniProt Q95PM0); experiment: protease selectivity panel, fluorometric assay rhodesain; assay type: biochemical; conditions: 100 µM inhibitor; n. i. = no inhibition at 100 µM; read-out: Rd inhibition relative to the DMSO control
T3 construct: purchased Calbiochem, Merck Millipore
Procedure: as §1, §2

[4] = molecular target: T4, NS2B-NS3 from Zika virus (ZIKV) (Zika virus, UniProt Q32ZE1); experiment: protease selectivity panel, fluorometric assay ZIKV NS2B/NS3 protease; assay type: biochemical; conditions: 100 µM inhibitor; read-out: ZIKV inhibition relative to the DMSO control
T4 construct: The ZIKV NS2B/NS3 protease is a serine protease and contains two non-catalytic cysteine residues
Procedure: as §1, §2

[5] = molecular target: human protease urokinase plasminogen activator (uPA) (Homo sapiens, UniProt P00749); experiment: protease selectivity panel, fluorometric assay urokinase plasminogen activator; assay type: biochemical; conditions: 100 µM inhibitor; n. i. = no inhibition at 100 µM; read-out: uPA inhibition relative to the DMSO control
Procedure: as §1, §2

[6] = molecular target: T5, cathepsin L (hCatL) (Homo sapiens, UniProt P07711); experiment: protease selectivity panel, fluorometric assay cathepsin L; assay type: biochemical; conditions: 100 µM inhibitor; read-out: CatL inhibition relative to the DMSO control
T5 construct: purchased Calbiochem, Merck Millipore
Procedure: as §1, §2

[7] = molecular target: DENV NS2B/NS3 protease (Dengue virus type 2, UniProt P29990); experiment: protease selectivity panel, fluorometric assay DENV NS2B/NS3 protease; assay type: biochemical; conditions: 100 µM inhibitor; n. i. = no inhibition at 100 µM; read-out: DENV inhibition relative to the DMSO control
Procedure: as §1, §2

[8] = cysteine reactivity assay (competitive fluorescence assay with probe 8); assay type: physicochemical; conditions: phosphate buffer (1×PBS) pH 7.5
Excerpt: In order to study the kinetics of sulfonylpyrimidines reacting with free cysteine in solution, a strategy for a competitive fluorescence-based assay was adapted from previous works ([Epps and Taylor, 2001]; [Sameshima et al., 2017]). […] The reaction of probe 8 with cysteine liberates 4-methylumbelliferone as a fluorometrically detectable product (Figure 7A), and thus, the fluorescence increase can be described by the second-order rate constant k probe (Equation 1).
Upon the addition of competitive and irreversible cysteine modifiers such as sulfonylpyrimidines, the fluorescence increase of the probe reaction was hyperbolically attenuated (Figure 7B). According to the conceptual deduction described previously ([Epps and Taylor, 2001]; [Sameshima et al., 2017]), the experimental fluorescence curves can be analyzed by nonlinear regression as first-order reaction progress curves (Equation 2). The parameter k obs describes the curvature corresponding to the sum of the competing kinetics (Equation 3). Under the assumptions that 1) the competitive reaction between sulfonylpyrimidines vs. probe with cysteine is started by simultaneous addition, and 2) sulfonylpyrimidines are added at a much higher concentration than cysteine (5 µM) and the probe (5 µM), the k obs values depend substantially on the k chem value. The compound-specific second-order inactivation parameter k chem can be determined by linear regression from the k obs values of the dilution series (Equation 4). d[FL]/dt=kprobe[Cys][probe] (1) FL=[Cys]total⋅kprobe [probe]/kprobe [probe] + kchem [sulfonylpyrimidine](1−e^−kobs⋅t) (2) kobs=kchem [sulfonylpyrimidine]+kprobe [probe] (3) kchem=kobs/[sulfonylpyrimidine] (4)
Kinetic characterization of the reaction between sulfonylpyrimidines and cysteine was performed in degassed phosphate buffer (1×PBS, pH 7.5) or individual cases in bicarbonate buffer (20 mM NaHCO3, 100 mM NaCl, pH 7.5). Three technical replicates were carried out for each sulfonylpyrimidine in black flat-bottom 96-well plates. For this purpose, 50 µL buffered solution (including 5% (v/v) DMSO) of the respective sulfonylpyrimidine derivative (final: 250–3 µM) and the cysteine reactive probe 8 (final: 5 µM) were premixed. Reactions were initiated by the addition of 50 µL cysteine (final: 5 µM), dissolved in the respective buffer, and monitored for 30 min at 30°C in an Infinite M200 Pro plate reader with λex 380 nm/λem 460 nm. To calculate k obs and k chem values, fluorescence curves were fitted using the same non-linear regression as for in vitro inhibition of SrtA ([Barthels et al., 2020]).

T1 sequence (Q2FV99 60-206): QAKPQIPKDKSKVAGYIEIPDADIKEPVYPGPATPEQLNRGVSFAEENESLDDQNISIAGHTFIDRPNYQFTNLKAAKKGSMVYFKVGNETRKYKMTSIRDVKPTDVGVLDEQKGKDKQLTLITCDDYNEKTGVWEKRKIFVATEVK
T4 sequence (Q32ZE1 1499-1676): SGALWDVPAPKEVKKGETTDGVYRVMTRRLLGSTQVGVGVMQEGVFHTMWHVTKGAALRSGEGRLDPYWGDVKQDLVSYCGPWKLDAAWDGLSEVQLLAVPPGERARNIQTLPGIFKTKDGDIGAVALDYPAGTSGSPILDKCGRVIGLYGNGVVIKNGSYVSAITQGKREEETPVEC
T4 sequence (Q32ZE1 1421-1460): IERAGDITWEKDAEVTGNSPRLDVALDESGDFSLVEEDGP
T3 sequence (Q95PM0 entry or part of it): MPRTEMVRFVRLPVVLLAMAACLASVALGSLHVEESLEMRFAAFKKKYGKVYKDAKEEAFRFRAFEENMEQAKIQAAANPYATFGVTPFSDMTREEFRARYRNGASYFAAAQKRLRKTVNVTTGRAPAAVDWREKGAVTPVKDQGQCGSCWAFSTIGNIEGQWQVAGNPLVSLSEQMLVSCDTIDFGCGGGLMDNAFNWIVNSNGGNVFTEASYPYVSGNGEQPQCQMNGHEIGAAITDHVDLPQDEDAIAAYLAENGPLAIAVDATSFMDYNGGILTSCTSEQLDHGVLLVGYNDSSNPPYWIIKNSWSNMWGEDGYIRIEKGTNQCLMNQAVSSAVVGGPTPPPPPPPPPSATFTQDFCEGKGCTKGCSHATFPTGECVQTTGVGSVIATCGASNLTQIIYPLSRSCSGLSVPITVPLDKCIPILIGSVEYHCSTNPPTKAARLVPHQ
T5 sequence (P07711 114-333): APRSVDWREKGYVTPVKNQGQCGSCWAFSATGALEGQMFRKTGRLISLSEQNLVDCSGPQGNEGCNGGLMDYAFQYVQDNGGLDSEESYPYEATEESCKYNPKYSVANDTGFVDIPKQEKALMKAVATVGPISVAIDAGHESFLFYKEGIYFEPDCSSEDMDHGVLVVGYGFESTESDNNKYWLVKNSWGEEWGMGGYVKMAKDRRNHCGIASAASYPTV
Chain of DENV NS2B/NS3 protease (P29990 1398-1437): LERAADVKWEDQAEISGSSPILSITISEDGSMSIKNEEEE
Chain of DENV NS2B/NS3 protease (P29990 1476-1653): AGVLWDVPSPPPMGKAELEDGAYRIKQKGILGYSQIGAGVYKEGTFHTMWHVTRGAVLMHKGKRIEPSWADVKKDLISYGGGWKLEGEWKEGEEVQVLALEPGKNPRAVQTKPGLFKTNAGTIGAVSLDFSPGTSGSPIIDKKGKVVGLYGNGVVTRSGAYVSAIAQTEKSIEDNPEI

Compound	melting point [°C]	k inact [1]	k 2nd [1]	SrtA inhibition (in words) [1]	also measured
CS(=O)(=O)c1ncc(Cl)c(C(=O)NCC(=O)Nc2cccc(Oc3ccccc3)c2)n1 [Compound 5b]	91	0.00082 ± 0.00004 s⁻¹	1,175 M^−1min^−1 and 1,175 ± 67 M^−1min^−1		KI (inactivation) [1]: 42.4 ± 4.62 µM
CS(=O)(=O)c1ncc(Cl)c(C(=O)Nc2ccc(-c3ccc(C#N)cc3)cc2)n1 [Compound 5d]	267	n. i.	n. i.		
CS(=O)(=O)c1ncc(Cl)c(C(=O)Nc2ccc3[nH]ncc3c2)n1 [Compound 5f]	231	n. i.	n. i.		
Cc1ccc(-c2csc(NC(=O)c3nc(S(C)(=O)=O)ncc3Cl)n2)cc1 [Compound 5g]	280	n. i.	n. i.		
CS(=O)(=O)c1ncc(Cl)c(C(=O)N2CCc3ccccc3C2)n1 [Compound 5h]	218	n. i.	n. i.		
CCC(CC)NC(=O)c1nc(S(C)(=O)=O)ncc1Cl [Compound 5i]	146	n. i.	n. i.		
CS(=O)(=O)c1ncc(Cl)c(C(=O)N(Cc2ccccc2)Cc2ccccc2)n1 [Compound 5k]	68	n. i.	n. i.		
CS(=O)(=O)c1ncc(Cl)c(C(=O)Nc2cccc(Sc3ccccc3)c2)n1 [Compound 6b]	135	0.00578 ± 0.00033 s⁻¹	7,305 ± 294 M^−1min^−1		KI (inactivation) [1]: 47.5 ± 4.62 µM
CS(=O)(=O)c1ncc(Cl)c(C(=O)Nc2cccc(OC3CCCCC3)c2)n1 [Compound 6c]	144	0.00864 ± 0.00092 s⁻¹	6,593 M^−1min^−1 and 6,593 ± 243 M^−1min^−1		KI (inactivation) [1]: 78.8 ± 9.92 µM
CS(=O)(=O)c1ncc(Cl)c(C(=O)Nc2cccc(Cc3ccccc3)c2)n1 [Compound 6d]	148	0.00618 ± 0.00025 s⁻¹	6,181 ± 489 M^−1min^−1		KI (inactivation) [1]: 60.3 ± 6.4 µM
COc1cccc(NC(=O)c2nc(S(C)(=O)=O)ncc2Cl)c1 [Compound 6e]			882 M⁻¹ min⁻¹ and 882 ± 43 M⁻¹ min⁻¹		Ki [1]: > 100 µM
CS(=O)(=O)c1ncc(Cl)c(C(=O)Nc2cccc(-c3ccccc3)c2)n1 [Compound 6f]	164		588 M⁻¹ min⁻¹ and 588 ± 48 M⁻¹ min⁻¹		Ki [1]: > 100 µM
CS(=O)(=O)c1ncc(Cl)c(C(=O)Nc2ccccc2Oc2ccccc2)n1 [Compound 6g]	177			complete abolition of inhibition	inhibition at 100 µM [2]: 11.8%; inhibition at 100 µM [3]: 15%; inhibition at 100 µM [4]: 18.3%; inhibition at 100 µM [5]: 67%; inhibition at 100 µM ([1]; read-out: SrtA inhibition relative to the DMSO control): 21.8%; inhibition at 100 µM [6]: 29.4%; inhibition at 100 µM [7]: 2.6%
CS(=O)(=O)c1ncc(Cl)c(C(=O)Nc2ccc(Oc3ccccc3)cc2)n1 [Compound 6h]	195	n. i.	n. i.	complete abolition of inhibition	
CS(=O)(=O)c1ncc(Cl)c(C(=O)Nc2cccc(OCc3ccccc3)c2)n1 [Compound 6k]	154	n. i.	n. i.	inhibition was completely abolished	
CS(=O)(=O)c1ncc(Cl)c(C(=O)Nc2ccc3c(c2)oc2ccccc23)n1 [Compound 6l]	250	n. i.	n. i.	complete loss of inhibition	
CS(=O)(=O)c1ncc(Cl)c(C(=O)Nc2cccc(C(=O)Nc3ccccc3)c2)n1 [Compound 6m]	237	n. i.	n. i.	inhibition was completely abolished	
CS(=O)(=O)c1ncc(Cl)c(C(=O)NCCSc2ccccc2)n1 [Compound 6n]		n. i.	n. i.	complete loss of inhibition	
Cc1cnc(S(C)(=O)=O)nc1C(=O)Nc1cccc(Oc2ccccc2)c1 [Compound 7d]	164		1,204 ± 139 M^−1min^−1		S. I. (k 2nd/k chem) ([1]; SrtA k 2nd over cysteine k chem): 196; Cysteine k chem [8]: 0.102 ± 0.0285 M⁻¹ s⁻¹
